According to US20260092179A1, “GENETICALLY MODIFIED HOST CELLS PRODUCING VIOLACEIN, ANALOGUES, AND DERIVATIVES THEREOF” (OCTARINE BIO APS, priority 2022, published 2026):
In brackets after ≈: the same amount, converted by molar mass.

Experiments:
[1] = Solubility of violacein in 100% methanol (stock solutions); assay type: physicochemical; conditions: organic solvent or mixture, read-out: soluble in 100% methanol
Text: In Example 7, S. cerevisiae was engineered to produce violacein and 3 other violacein derivatives (deoxyviolacein, proviolacein, and prodeoxyviolacein). However, during cultivation experiments a number of issues were observed. […] On agar plate we also observed a number of colonies losing their colour, indicating rapid selection against the introduced biosynthetic pathway. […] Issues with toxicity, solubility, and product export have significant negative effects on production of these compounds and limit the commercial viability. To overcome these issues, we investigated whether glycosylation of the compounds could provide a positive impact and improve production. Because violacein and violacein derivatives are not naturally glycosylated, we first sought to identify heterologous glycosyltransferase enzymes displaying promiscuous activity towards these compounds by running a series of in vitro glycosyltransferase enzyme assays using violacein and violacein derivatives as substrate

[2] = Artificial light stability of dyed fabrics (colour fastness, ΔE); assay type: physicochemical; conditions: for ΔE: before vs after LED lamp, room temperature, 16 h
Procedure: In order to assess the stability and colour fastness of violacein and violacein derivatives dyed onto fabrics, dyed fabrics were subjected to a number of conditions. Fabrics were dyed according to Example 18 and colour coordinates and colour change before and after exposure to a given condition were determined as described in Example 18. To measure temperature stability, fabrics were incubated in an oven set to 80° c. for 4 h. To measure stability under acid and alkaline conditions, fabrics were fully submerged in water solutions set to pH 8 with NaOH and pH 5 with HCl and incubated at room temperature for 30 minutes. Fabrics were then incubated at 37° c. for 4 h. To measure stability during laundering, fabrics were washed at 30° c. under the “mix” setting of a Siemens IQ300 washing machine, then dried in a Siemens IQ300 dryer until dry. To measure artificial light stability, fabrics were placed under an LED lamp at room temperature for 16 h. To measure UV light stability, fabrics were placed under a UV lamp at room temperature for 1 h.

[3] = Acrylic, after test (LED lamp, room temperature, 16 h)
[4] = Bleached cotton, after test (LED lamp, room temperature, 16 h)
[5] = Diacetate, after test (LED lamp, room temperature, 16 h)
[6] = Nylon 6,6, after test (LED lamp, room temperature, 16 h)
[7] = Polyester, after test (LED lamp, room temperature, 16 h)
[8] = Wool, after test (LED lamp, room temperature, 16 h)

## O=C1NC(c2c[nH]c3ccc(O)cc23)=C/C1=C1\C(=O)Nc2ccccc21 [violacein]
[1]
  solubility: 5 mM (≈ 1720 µg/mL)
[2]; [3]
  L: 69.82
  a: 3.01
  b: 3.46
[2]; Acrylic, before test
  L: 65.94
  a: 3.06
  b: 1.37
[2]; Acrylic
  ΔE: 4.41
[2]; [4]
  L: 62.61
  a: 4.18
  b: −6.26
[2]; Bleached cotton, before test
  L: 60.03
  a: 2.81
  b: −7.43
[2]; Bleached cotton
  ΔE: 3.15
[2]; [5]
  L: 52.2
  a: 6.06
  b: 1.03
[2]; Diacetate, before test
  L: 43.88
  a: 8.03
  b: 13.02
[2]; Diacetate
  ΔE: 14.73
[2]; [6]
  L: 34.82
  a: 4.72
  b: −17.83
[2]; Nylon 6,6, before test
  L: 38.2
  a: 11.52
  b: −16.9
[2]; Nylon 6,6
  ΔE: 7.65
[2]; [7]
  L: 73.11
  a: 2.28
  b: 1.66
[2]; Polyester, before test
  L: 68.58
  a: 3.06
  b: −1.75
[2]; Polyester
  ΔE: 5.72
[2]; [8]
  L: 71.32
  a: 1.18
  b: 3.25
[2]; Wool, before test
  L: 67.82
  a: 1.06
  b: 0.85
[2]; Wool
  ΔE: 4.25

## O=C1NC(c2c[nH]c3ccccc23)=C/C1=C1\C(=O)Nc2ccccc21 [deoxyviolacein]
[2]; [3]
  L: 64.84
  a: 0.76
  b: 2.12
[2]; Acrylic, before test
  L: 60.52
  a: 1.59
  b: −2.77
[2]; Acrylic
  ΔE: 6.58
[2]; [4]
  L: 62.47
  a: 2
  b: −6.81
[2]; Bleached cotton, before test
  L: 60.49
  a: 0.97
  b: −7.49
[2]; Bleached cotton
  ΔE: 2.33
[2]; [5]
  L: 49.82
  a: 9.13
  b: −9.9
[2]; Diacetate, before test
  L: 47.05
  a: 13.99
  b: −17.37
[2]; Diacetate
  ΔE: 9.33
[2]; [6]
  L: 46.23
  a: 5.57
  b: −18.4
[2]; Nylon 6,6, before test
  L: 43.65
  a: 5.57
  b: −20.95
[2]; Nylon 6,6
  ΔE: 3.63
[2]; [7]
  L: 70.32
  a: 0.28
  b: 2.09
[2]; Polyester, before test
  L: 64.39
  a: 1.76
  b: −4.83
[2]; Polyester
  ΔE: 9.23
[2]; [8]
  L: 69.63
  a: 0.44
  b: 3.2
[2]; Wool, before test
  L: 64.28
  a: −0.4
  b: −0.37
[2]; Wool
  ΔE: 6.49

## O=C1N=C(c2c[nH]c3ccc(O)cc23)C=C1c1c[nH]c2ccccc12 [proviolacein]
[2]; [3]
  L: 58.47
  a: −0.05
  b: 2.76
[2]; Acrylic, before test
  L: 56.17
  a: −0.68
  b: 3.21
[2]; Acrylic
  ΔE: 2.43
[2]; [4]
  L: 62.69
  a: 3.04
  b: 3.55
[2]; Bleached cotton, before test
  L: 58.83
  a: −0.52
  b: 4.04
[2]; Bleached cotton
  ΔE: 5.27
[2]; [5]
  L: 63.43
  a: 4.56
  b: 7.02
[2]; Diacetate, before test
  L: 56.45
  a: 3.46
  b: 5.75
[2]; Diacetate
  ΔE: 7.18
[2]; [6]
  L: 51.07
  a: −0.68
  b: −2.49
[2]; Nylon 6,6, before test
  L: 47.03
  a: −1.98
  b: −2.52
[2]; Nylon 6,6
  ΔE: 4.24
[2]; [7]
  L: 65.01
  a: −0.35
  b: 1.74
[2]; Polyester, before test
  L: 59.49
  a: −1.38
  b: 2.13
[2]; Polyester
  ΔE: 5.63
[2]; [8]
  L: 67.51
  a: −0.15
  b: 6.46
[2]; Wool, before test
  L: 65.25
  a: −0.55
  b: 5.71
[2]; Wool
  ΔE: 2.41
